Assays:
Type in all cases: in vivo
[1] = test system: male Sprague-Dawley rats; experiment: Glomerulonephritis (nephrotoxic serum), albuminuria; details: EX-2 100 μg/kg per injection, 3 times per day; nephrotoxic serum iv
Procedure: Male Sprague-Dawley rats (weight 194-248 g) were immunized by subcutaneous injection of 1 mg normal rabbit IgG (Sigma Chemical Co.) in Freund's complete adjuvant (Sigma Chemical Co.). EX-2 was administered 3 times per day (100 μg/kg per injection) throughout the duration of the experiment. Seven days later, the rats were injected with 1.5 ml of nephrotoxic serum iv via dorsal penile vein. Urine, plasma, and serum were collected before injection of nephrotoxic serum at 4, 6, 24, 48, and 96 hr thereafter. […] Albuminuria was quantified by immunoelectrophoresis.

[2] = test system: TNF-α; experiment: Reduction of LPS-induced TNF levels in mice (IP dosing); details: 30 μg/mouse IP before LPS 5 mg/kg IP; vs untreated control mice
Procedure: Balb/c female mice weighing approximately 20 g were placed into two groups, a control group and a treated group. Five mg/kg of LPS in 0.9% saline was administered by intraperitoneal (IP) injection into the control mice. Mice in the treated group were first injected IP with 30 μg EX-2 or 150 μg EX-3 in saline, then, one mn after EX-2 or EX-3 was administered, the mice received LPS as described for the control group.
Blood samples were collected from the orbital sinus of treated and control mice at various times up to four hr after LPS was administered. The plasma was separated by centrifugation at 3000×g for 5 min, then diluted with four volumes of 1× phosphate buffer saline (pH 7.4) containing 1% bovine serum albumin. A 100 μl sample of serum was assayed by ELISA for TNF-α (Genzyme; Cambridge Mass.).
The mean (±SEM) TNF-α level in six mice from each group was determined and the percent reduction in TNF levels was calculated.

[3] = test system: Male Harlan Sprague-Dawley rats; experiment: Adult respiratory distress syndrome: LPS-induced PMN count in broncho-alveolar lavage fluid; details: 100 μg/kg IP at 0, 2 and 4 hr; intratracheal LPS 5 mg/kg; lavage at 6 hr
Procedure: These experiments were performed using a modification of the methods described by Ulich et al., Am. J. Pathol. 141:61-68 (1992) and by Wheelden et al., Lab. Animals 26:29-37 (1992), each of which is incorporated herein by reference. Male Harlan Sprague-Dawley rats were anesthetized using a mixture of 70 mg/kg ketamine and 6 mg/kg rompun injected IP. A 2-3 cm incision was made in the neck of each anesthetized rat and its trachea was exposed by blunt dissection of the surrounding soft tissue. The rats were suspended on a near vertical slab and intratracheal injections were performed by inserting into the exposed trachea, at a point 1 cm posterior to the larynx, a 25G×1/2 inch needle attached to a 1 cc syringe.
Each rat received 0.5 ml/kg of saline or 0.5 ml/kg of 10 mg/ml (5 mg/kg) LPS endotoxin via slow intratracheal administration. Immediately following administration of the LPS endotoxin, rats were injected IP with 1 ml/kg of either saline (control) or saline containing various concentrations of EX-2 (treated). The rats were maintained in the elevated position for 1-2 min to facilitate distribution of the LPS and saline into the lung. The incisions were closed and the rats were allowed to recover. […]
The total polymorphonuclear leukocytes (PMN; neutrophils) in the broncho-alveolar lavage fluid were counted in the EX-2-treated rats and compared with the number in the control rats.

[4] = test system: male Sprague-Dawley rats; experiment: Streptozotocin-induced diabetes; details: STZ 65 mg/kg iv; EX-2 150 μg/kg every 8 hr for 72 hr
Procedure: Male Sprague-Dawley rats were given 65 mg/kg of streptozotocin (STZ) intravenously through the tall vein. Rats were divided into two groups. The first group was administered EX-2, 150 μg/kg every 8 hr for 72 hr and the second group was a control. Blood samples were withdrawn under ether anesthesia every 8 hr for the first 72 hr, then every 12 hr or 24 hr until the end of the observation period. Plasma samples were assayed for glucose using a glucose assay kit (Trinder, Sigma Chemical Co.). As shown in Table VI below EX-2 effect a 72% reduction in blood glucose levels.

[5] = test system: Adult male Sprague-Dawley rats; experiment: Disuse deconditioning (tail suspension) in rats; details: 1 or 5 μg/kg IP twice daily
Procedure: Adult male Sprague-Dawley rats (355-365 g) were used in this study. Animals were housed individually in standard rat cages and were acclimated on a treadmill for 4 days. The next day, a baseline tail bleed was performed, followed by a maximal treadmill stress test the day after. The day following the stress test, the animals were divided into the appropriate treatment and control groups and the animals were suspended by their tails in suspension cages, which simulates weightlessness and, therefore, deconditions the animals. Another group of control animals was placed in standard rat cages with grated flooring similar to that utilized in the suspension cages. All animals were housed one per cage and supplied with food and water ad libitum. Body weights and food consumptions were measured daily Animals received twice daily IP injections of 1 μg/kg or 5 μg/kg body weight of EX-2 (treated), or 1 ml/kg body weight of saline (control). On day 10, all animals were stress tested on the treadmill until they reached exhaustion. Data on maximum VO2 and running time were collected and compared to pre-suspension results. On day 14, all animals were sacrificed, and blood, tissues, and organs were collected for further analysis. All procedures and tests were performed blind to avoid researcher subjectivity. Statistical significance (p<0.05) between groups was evaluated by ANOVA with Student-Newman-Keuls test for multiple comparisons. All data are reported as the mean±standard error (SE).
All of the animals were subjected to the stress tests, which measured exercise time and maximal VO2. As well, levels of the oxidative enzyme soleus citrate synthase and tibia bone density were measured.
Soleus citrate synthase was attenuated by 50%.

Q: For “Ac-Nle-Gln-His-(D)Phe-Arg-(D)Trp-Gly-NH2 [EX-2]”, which “Glomerulonephritis: Albumin (mg/day), % Reduction of induced increase” value [1] is on record?
A: 62%

Q: And the “Reduction in TNF levels” value [2]?
A: 50%

Q: What about the “Reduction in LPS-induced PMN Count” value [3] of the same substance?
A: 58%

Q: What about the “STZ Diabetes: Blood Glucose (mg/dl), % Reduction of induced increase” value [4] of the same substance?
A: 72%

Q: And the “Soleus Citrate Synthase, % Attenuation of suspension-induced decrease” value ([5]; 14 days suspension)?
A: 50%

Q: And the “Tibia Bone Density, % Attenuation of suspension-induced decrease” value ([5]; 14 days suspension)?
A: 50%

Q: What about the “Exercise Time, % Attenuation of suspension-induced decrease” value ([5]; treadmill stress test day 10) of the same substance?
A: 44%

Q: And the “Maximal VO2, % Attenuation of suspension-induced decrease” value ([5]; treadmill stress test day 10)?
A: 80%
